The values below are quoted from earlier work in patent US20140220152A1, “Compositions and Methods for Detecting, Treating, or Preventing Reductive Stress” (University of Utah Research Foundation, priority 2007, published 2014).

The term LD50 denotes the dose at which mortality reaches 50%.

Series [1] has as its target mammalian glucose-6-phosphate dehydrogenase (G6PDH) (Homo sapiens, UniProt P11413).
For series [2] the following is noted: rodents.
The conditions of series [3]: humans taking repeated doses of 250 mg disulfuram daily.

Molecules are shown by their SMILES.

mammalian glucose-6-phosphate dehydrogenase (G6PDH), sequence (P11413 whole entry): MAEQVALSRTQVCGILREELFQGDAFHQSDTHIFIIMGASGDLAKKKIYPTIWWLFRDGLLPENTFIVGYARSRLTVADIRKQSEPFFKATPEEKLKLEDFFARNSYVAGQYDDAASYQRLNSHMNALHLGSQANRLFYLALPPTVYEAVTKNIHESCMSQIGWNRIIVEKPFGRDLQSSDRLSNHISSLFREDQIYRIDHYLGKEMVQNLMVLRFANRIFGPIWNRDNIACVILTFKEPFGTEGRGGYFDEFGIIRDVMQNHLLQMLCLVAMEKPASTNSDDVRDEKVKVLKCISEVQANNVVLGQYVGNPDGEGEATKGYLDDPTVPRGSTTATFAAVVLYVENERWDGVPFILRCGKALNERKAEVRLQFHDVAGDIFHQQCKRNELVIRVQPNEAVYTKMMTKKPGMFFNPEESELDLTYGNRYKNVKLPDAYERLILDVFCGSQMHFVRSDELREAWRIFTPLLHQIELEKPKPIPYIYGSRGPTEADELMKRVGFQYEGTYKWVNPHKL

On to `C[C@]12CC[C@H](O)CC1=CC[C@@H]1[C@@H]2CC[C@]2(C)C(=O)CC[C@@H]12` [DHEA, Dehydroepiandrosterone], for which the “inhibition of mammalian G6PDH” value in series [1] is listed as “potent non-competitive inhibitor”.

Take `CCN(CC)C(=S)SSC(=S)N(CC)CC` [Disulfuram, tetraalkylthiuram disulfide]: the LD50 in series [2] was 8600 mg/kg. Also, the Steady-state serum levels result in series [3] is given as “approximately 1.3 μM”.

Consider `C[C@]12CC[C@H](O)C[C@@H]1CC[C@@H]1[C@@H]2CC[C@]2(C)C(=O)[C@H](Br)C[C@@H]12` [16α-bromoepiandrosterone], for which the “inhibition of mammalian G6PDH” value in series [1] is given as “more potent inhibitor of mammalian G6PDH than DHEA”.
